Counter-ions that a name gives are not always drawn.
Molecular target: sigma receptors
Assay: sigma receptor binding, [3H]di(2-tolyl)-guanidine (DTG) assay, guinea pig brain membranes
Details: [3H]DTG approximately 4 nM; male Hartley guinea pig brain membranes; 25° C. for 90 min; nonspecific binding 10 μM haloperidol
Procedure: Brain tissue was prepared from male Hartley guinea pigs (Hazelton Labs, Denver, Pa.) which were anesthetized with CO2 and sacrificed by decapitation. All animal care and use procedures were in accord with the "Guide for the Care and Use of Laboratory Animals" (NIH Publ. No. 86-23, 1985). Homogenization was performed in 10 volumes (wt/vol) of 0.32M sucrose with a Brinkmann Polytron at setting 5, 30 sec. The homogenate was centrifuged at 900×g for 10 min at 4° C., and the supernatant was collected and centrifuged at 22,000×g for 20 min at 4° C. The pellet was resuspended in 10 volumes of Tris-HCl buffer (50 mM, pH 7.4), incubated at 37° C. for 30 min and centrifuged at 22,000×g for 20 min at 4° C. Following this, the pellet was resuspended in Tris buffer and frozen in 5-10 mL aliquots corresponding to a tissue concentration of 100 mg/mL at -70° C. Binding characteristics of the membranes were stable for at least one month when stored at -70° C.
On the day of the assay, membrane aliquots were thawed, resuspended in fresh Tris buffer and stored on ice until use. Each assay tube contained 100 μL of [^3 H](+)pentazocine at a final concentration of approximately 0.5 nM, [^3 H]di(2-tolyl)-guanidine (DTG) at a final concentration of approximately 4 nM, 100 μL of various concentrations of the compounds of interest, 500 μL of the tissue suspension and 300 μL of buffer to a final assay volume of 1 mL and a final tissue concentration of approximately 8 mg/tube, corresponding to approximately 0.15 mg protein/tube. Nonspecific binding was defined by addition of a final concentration of 1 μM haloperidol to blank tubes for the [^3 H](+)pentazocine assay or by addition at a final concentration of 10 μM haloperidol to blank tubes for [^3 H] DTG assay. All tubes were incubated at 37° C. for 150 min ([^3 H](+)pentazocine) or at 25° C. for 90 min ([^3 H]DTG) before termination of the reaction by filtration over Whatman GF/B glass fiber filters that were presoaked in a solution of 0.5% polyethyleneimine for at lease 1 hr prior to use. Filters were washed with three 4 mL volumes of cold Tris-HCl buffer.
Following addition of scintillation cocktail, samples were allowed to equilibrate for at least 4 hr. The amount of bound radioactivity was determined by liquid scintillation spectrometry using a Beckman LS 5000 TA liquid scintillation counter with an efficiency for tritium of approximately 60%. The results are reported as a percent (%) inhibit ion of binding at 10 μM.
Data obtained on the compounds in the di(2-tolyl)guanidine (DTG) and d-pentazocine (+Pent) assays are expressed as a Ki value in nM. The number of determinations follow this value in parentheses.

| SMILES | Ki [nM] |
| --- | --- |
| O=C(CCc1ccccc1)N1CCC(O)(c2ccccc2)CC1 [Example 1, 4-Phenyl-4-hyroxy-1-(3-phenylpropionyl) piperidine] | 34400 |
| O=C(O)C1(c2ccccc2)CCN(CCCc2ccccc2)CC1 [Example 2a, 4-phenyl-1-(3-phenylpropyl)-4-piperidinecarboxylic acid] | 16.4 |
| O=C(N1CCCC1)C1(c2ccccc2)CCN(CCCc2ccccc2)CC1 [Example 2b, 4-Phenyl-1-(3-phenylpropyl)-4-(1-pyrrolidinylcarbonyl)piperidine] | 116 |
| COc1cccc(C2CCN(CCCc3ccccc3)CC2)c1 [Example 3a, 4-(3-methoxyphenyl)-1-(3-phenylpropyl)piperidine hydrochloride] | 2.21 |
| Oc1cccc(C2CCN(CCCc3ccccc3)CC2)c1 [Example 3b, 4-(3-hydroxyphenyl)-1-(3-phenylpropyl)piperidine hydrochloride] | 0.65 |
| O=C(c1ccccc1)C1(c2ccccc2)CCN(CCCc2ccccc2)CC1 [Example 4, 4-benzoyl-4-phenyl-1-(3-phenylpropyl)piperidine] | 22.1 |
| CCC(=O)C1(c2ccccc2)CCN(CCCc2ccccc2)CC1 [Example 5, 4-Phenyl-1-(3-phenylpropyl)-4-propionylpiperidine] | 9.1 |
| CCC(=O)OC1(c2ccccc2)CCN(CCC(=NO)c2ccccc2)CC1 [Example 6, 4-Phenyl-1-(3-oximino-3-phenylpropyl)-4-propionoxypiperidine] | 589 |
| CCOC(=O)C1(c2ccccc2)CCN(CCCc2ccccc2)CC1 [Example 7, Ethyl 4-Phenyl-1-(3-phenylpropyl)-4-piperidinecarboxylate] | 88.9 |
